In patent US20250320184A1 (SIRONAX LTD., priority 2022, published 2025) one finds IC50 data, which are given here for 39 compounds.

The test addresses T1, SARM1 (50-724) (Homo sapiens, UniProt Q6SZW1).
T1 sequence (Q6SZW1 50-724): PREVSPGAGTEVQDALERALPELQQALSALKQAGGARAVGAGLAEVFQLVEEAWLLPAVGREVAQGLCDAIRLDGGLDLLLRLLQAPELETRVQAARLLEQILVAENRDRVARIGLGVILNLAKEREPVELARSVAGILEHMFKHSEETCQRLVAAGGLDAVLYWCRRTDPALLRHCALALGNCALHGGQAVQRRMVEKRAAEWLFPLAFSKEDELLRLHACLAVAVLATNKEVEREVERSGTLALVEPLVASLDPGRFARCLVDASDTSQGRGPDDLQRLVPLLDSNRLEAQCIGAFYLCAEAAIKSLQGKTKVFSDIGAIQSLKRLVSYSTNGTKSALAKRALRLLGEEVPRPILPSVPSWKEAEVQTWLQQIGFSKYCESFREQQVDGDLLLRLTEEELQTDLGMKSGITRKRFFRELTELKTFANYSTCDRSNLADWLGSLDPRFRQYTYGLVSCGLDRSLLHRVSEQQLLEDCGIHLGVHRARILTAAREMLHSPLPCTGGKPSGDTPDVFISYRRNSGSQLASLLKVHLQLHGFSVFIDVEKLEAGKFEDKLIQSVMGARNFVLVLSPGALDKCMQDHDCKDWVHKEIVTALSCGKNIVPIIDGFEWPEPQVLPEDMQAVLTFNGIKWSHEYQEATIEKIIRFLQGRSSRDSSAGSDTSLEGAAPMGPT
The test is described as follows: biochemical.
Procedure: An enzymatic assay was performed in a 384-well plate using Dulbecco's phosphate-buffered saline (PBS) as the reaction buffer. […] The reaction was initiated by adding a mixture of 200 μM nicotinamide mononucleotide (NMN) as activator and 100 μM NAD^+ as substrate. After 1 h of incubation at room temperature, the reaction was terminated with 10 times volume of 70% acetonitrile, then centrifuged at 3800 rpm for 10 min.
With `CC(Nc1ccc2c(c1)C(=O)NCC2)c1ccc(Cl)c(Cl)c1` (racemic) [Example 104, 7-((1-(3,4-dichlorophenyl)ethyl)amino)-3,4-dihydroisoquinolin-1(2H)-one], the IC50 (in general, the concentration at which inhibition is half-maximal) is 500 to 1000 nM.

Consider `Cc1ccc(F)cc1C(C)Nc1ccc2c(c1)C(=O)NCC2` (racemic) [Example 105, 7-((1-(5-fluoro-2-methylphenyl)ethyl)amino)-3,4-dihydroisoquinolin-1(2H)-one], for which the IC50 lay in the range of 100 to 500 nM.

Turning to `CC(Nc1ccc2c(c1)C(=O)NCC2)c1cccc(F)c1F` (racemic) [Example 106, 7-((1-(2,3-difluorophenyl)ethyl)amino)-3,4-dihydroisoquinolin-1(2H)-one], the IC50 is over 1000 nM.

Turning to `CC(Nc1ccc2cc[nH]c(=O)c2c1)c1cnc(Cl)c(Cl)c1` (racemic) [Example 107, 7-((1-(5,6-dichloropyridin-3-yl)ethyl)amino)isoquinolin-1(2H)-one], the IC50 was 100 to 500 nM.

The compound `CC(Nc1ccc2cc[nH]c(=O)c2c1)c1cccc(Cl)c1` (racemic) [Example 108, 7-((1-(3-chlorophenyl)ethyl)amino)isoquinolin-1(2H)-one] came in with an IC50 of 100 to 500 nM.

`CCC(Nc1ccc2c(c1)C(=O)NCC2)c1cc(C)cc(F)c1` (racemic) [Example 109, 7-((1-(3-fluoro-5-methylphenyl)propyl)amino)-3,4-dihydroisoquinolin-1(2H)-one]: the IC50 is 100 to 500 nM.

`CC(Nc1ccc2cc[nH]c(=O)c2c1)c1ccccc1Cl` (racemic) [Example 110, 7-((1-(2-chlorophenyl)ethyl)amino)isoquinolin-1(2H)-one] displayed a concentration for half-maximal inhibition (IC50) of 100 to 500 nM.

The compound `CC(Nc1ccc2cc[nH]c(=O)c2c1)c1cccc(F)c1` (racemic) [Example 113, 7-((1-(3-fluorophenyl)ethyl)amino)isoquinolin-1(2H)-one] returned an IC50 of 500 to 1000 nM.

In turn, `CC(Nc1ccc2cc[nH]c(=O)c2c1)c1cc(F)cc(F)c1` (racemic) [Example 114, 7-((1-(3,5-difluorophenyl)ethyl)amino)isoquinolin-1(2H)-one] came in with a concentration for half-maximal inhibition (IC50) of 100 to 500 nM.

On to `CC(Nc1ccc2cc[nH]c(=O)c2c1)c1ccccc1F` (racemic) [Example 115, 7-((1-(2-fluorophenyl)ethyl)amino)isoquinolin-1(2H)-one], for which the concentration for half-maximal inhibition (IC50) was over 1000 nM.

Take `CC(Nc1ccc2cc[nH]c(=O)c2c1)c1ccc(Cl)cc1` (racemic) [Example 116, 7-((1-(4-chlorophenyl)ethyl)amino)isoquinolin-1(2H)-one]: the 50% inhibitory concentration (IC50) was over 1000 nM.

The compound `COc1ncc(C(C)Nc2ccc3cc[nH]c(=O)c3c2)cc1Cl` (racemic) [Example 117, 7-((1-(5-chloro-6-methoxypyridin-3-yl)ethyl)amino)isoquinolin-1(2H)-one] returned an IC50 of 100 to 500 nM.

Consider `CC(Nc1ccc2cc[nH]c(=O)c2c1)c1nccc(Cl)c1Cl` (racemic) [Example 118, 7-((1-(3,4-dichloropyridin-2-yl)ethyl)amino)isoquinolin-1(2H)-one], for which the IC50 was under 100 nM.

The compound `CC(Nc1ccc2c(c1)C(=O)NCC2)c1cnc(Cl)c(Cl)c1` (racemic) [Example 119, 7-((1-(5,6-dichloropyridin-3-yl)ethyl)amino)-3,4-dihydroisoquinolin-1(2H)-one] had an IC50 of 500 to 1000 nM.

On to `CC(Nc1ccc2c(c1)C(=O)NC2)c1cccc(Cl)c1Cl` (racemic) [Example 120, 6-((1-(2,3-dichlorophenyl)ethyl)amino)isoindolin-1-one], for which the IC50 was over 1000 nM.

The compound `CC(Nc1ccc2c(c1)NC(=O)CC2)c1cccc(Cl)c1Cl` (racemic) [Example 121, 7-((1-(2,3-dichlorophenyl)ethyl)amino)-3,4-dihydroquinolin-2(1H)-one] returned a half-inhibitory concentration (IC50) of 500 to 1000 nM.

Turning to `CC(Nc1ccc2cc[nH]c(=O)c2c1)c1cc(Cl)cnc1Cl` (racemic) [Example 122, 7-((1-(2,5-dichloropyridin-3-yl)ethyl)amino)isoquinolin-1(2H)-one], the IC50 lay in the range of 500 to 1000 nM.

As for `Cc1ccc(C(C)Nc2ccc3c(c2)C(=O)NCC3)cc1F` (racemic) [Example 123, 7-((1-(3-fluoro-4-methylphenyl)ethyl)amino)-3,4-dihydroisoquinolin-1(2H)-one], the IC50 was over 1000 nM.

In turn, `CCCC(Nc1ccc2c(c1)C(=O)NCC2)c1cc(C)cc(F)c1` (racemic) [Example 125, 7-((1-(3-fluoro-5-methylphenyl)butyl)amino)-3,4-dihydroisoquinolin-1(2H)-one] yielded an IC50 of 500 to 1000 nM.

Regarding `CCC(Nc1ccc2cc[nH]c(=O)c2c1)c1cccc(Cl)c1` (racemic) [Example 126, 7-((1-(3-chlorophenyl)propyl)amino)isoquinolin-1(2H)-one], the IC50 lay in the range of 100 to 500 nM.

With `Cc1cc(F)cc(C(Cc2ccccc2)Nc2ccc3c(c2)C(=O)NCC3)c1` (racemic) [Example 127, 7-((1-(3-fluoro-5-methylphenyl)-2-phenylethyl)amino)-3,4-dihydroisoquinolin-1(2H)-one], the IC50 is over 1000 nM.

For the compound `CC(Nc1ccc2nc[nH]c(=O)c2c1)c1cccc(Cl)c1Cl` (racemic) [Example 128, 6-((1-(2,3-dichlorophenyl)ethyl)amino)quinazolin-4(3H)-one], the IC50 was under 100 nM.

`CC(Nc1ccc2cccnc2c1)c1cccc(Cl)c1Cl` (racemic) [Example 129, N-(1-(2,3-dichlorophenyl)ethyl)quinolin-7-amine] registered an IC50 of 500 to 1000 nM.

`CC(Nc1ccc2cc[nH]c(=O)c2c1)c1sc(Cl)nc1Cl` (racemic) [Example 130, 7-((1-(2,4-dichlorothiazol-5-yl)ethyl)amino)isoquinolin-1(2H)-one] yielded an IC50 of 100 to 500 nM.

In the case of `CC(Nc1ccc2cc[nH]c(=O)c2c1)c1ccnc(Cl)c1Cl` (racemic) [Example 131, 7-((1-(2,3-dichloropyridin-4-yl)ethyl)amino)isoquinolin-1(2H)-one], the IC50 is 100 to 500 nM.

Turning to `CC(Nc1ccc2cc[nH]c(=O)c2c1)c1cc(Cl)ccc1Cl` (racemic) [Example 132, 7-((1-(2,5-dichlorophenyl)ethyl)amino)isoquinolin-1(2H)-one], the IC50 was under 100 nM.

Take `CC(Nc1ccc2ncn(C)c(=O)c2c1)c1cccc(Cl)c1Cl` (racemic) [Example 133, 6-((1-(2,3-dichlorophenyl)ethyl)amino)-3-methylquinazolin-4(3H)-one]: the half-inhibitory concentration (IC50) was in the range of 100 to 500 nM.

As for `CC(Nc1ccc2ccccc2n1)c1cccc(Cl)c1Cl` (racemic) [Example 134, N-(1-(2,3-dichlorophenyl)ethyl)quinolin-2-amine], the IC50 is over 1000 nM.

Turning to `CC(Nc1ccc2cc[nH]c(=O)c2c1)c1cc(F)ccc1Cl` (racemic) [Example 135, 7-((1-(2-chloro-5-fluorophenyl)ethyl)amino)isoquinolin-1(2H)-one], the IC50 is under 100 nM.

Regarding `CC(Nc1ccc2cc[nH]c(=O)c2c1)c1cc(F)cc(Cl)c1Cl` (racemic) [Example 136, 7-((1-(2,3-dichloro-5-fluorophenyl)ethyl)amino)isoquinolin-1(2H)-one], the IC50 is under 100 nM.

As to `CC(Nc1ccc2cc[nH]c(=O)c2c1)c1cc(F)cc(F)c1Cl` (racemic) [Example 137, 7-((1-(2-chloro-3,5-difluorophenyl)ethyl)amino)isoquinolin-1(2H)-one], the IC50 is under 100 nM.

As for `CC(Nc1ccc2cc[nH]c(=O)c2c1)c1cc(Cl)cc(Cl)c1Cl` (racemic) [Example 138, 7-((1-(2,3,5-trichlorophenyl)ethyl)amino)isoquinolin-1(2H)-one], the IC50 was under 100 nM.

In the case of `CC(Nc1ccc2cc[nH]c(=O)c2c1)c1cccc(F)c1Cl` (racemic) [Example 139, 7-((1-(2-chloro-3-fluorophenyl)ethyl)amino)isoquinolin-1(2H)-one], the IC50 fell in the range of 100 to 500 nM.

`CC(Nc1ccc2ccnn2c1)c1cccc(Cl)c1Cl` (racemic) [Example 140, N-(1-(2,3-dichlorophenyl)ethyl)pyrazolo[1,5-a]pyridin-6-amine] registered an IC50 of 500 to 1000 nM.

In turn, `CC(Nc1ccc2c(cnn2C)c1)c1cccc(Cl)c1Cl` (racemic) [Example 141, N-(1-(2,3-dichlorophenyl)ethyl)-1-methyl-1H-indazol-5-amine] came in with an IC50 of over 1000 nM.

Regarding `CC(Nc1ccc2ccn(Cc3ccccc3)c(=O)c2c1)c1cccc(Cl)c1Cl` (racemic) [Example 142, 2-benzyl-7-((1-(2,3-dichlorophenyl)ethyl)amino)isoquinolin-1(2H)-one], the 50% inhibitory concentration (IC50) fell in the range of 500 to 1000 nM.

Turning to `CCC(Nc1ccc2cc[nH]c(=O)c2c1)c1cccc(Cl)c1Cl` (racemic) [Example 143, 7-((1-(2,3-dichlorophenyl)propyl)amino)isoquinolin-1(2H)-one], the IC50 was under 100 nM.

For `Cc1cc(F)cc(C(Nc2ccc3c(c2)C(=O)NCC3)C(C)C)c1` (racemic) [Example 144, 7-((1-(3-fluoro-5-methylphenyl)-2-methylpropyl)amino)-3,4-dihydroisoquinolin-1(2H)-one], the IC50 was in the range of 100 to 500 nM.

`C=CCCC(Nc1ccc2c(c1)C(=O)NCC2)c1cc(C)cc(F)c1` (racemic) [Example 145, 7-((1-(3-fluoro-5-methylphenyl)pent-4-en-1-yl)amino)-3,4-dihydroisoquinolin-1(2H)-one] returned an IC50 of 500 to 1000 nM.
